Experiment: Content of drug solution in 2-methyl-2-propanol during stirring by Polytron or stirrer
Type: physicochemical
Settings: about 40° C.; for Content [vs. 0 h %]: about 4.0 mg/mL in 2-methyl-2-propanol
Method: Then, whether the content and analogous substance are affected by stirring in a homomixer was considered. To cis[((1R,2R)-1,2-cyclohexanediamine-N,N′)bis(tetradecanoyloxy)]platinum(II) monohydrate was added 2-methyl-2-propanol to a liquid formulation concentration of about 4.0 mg/mL. This was prepared in two Erlenmeyer flasks. One Erlenmeyer flask was stirred with a stirrer at a liquid temperature of about 40° C. after ultrasonication. The other Erlenmeyer flask was stirred at about 10000 rpm at a liquid temperature of about 40° C. using Polytron pulverizer (pulverization diameter G8) manufactured by IKA that pulverizes and dissolves by the same mechanism as a homogenizer. The stirring was continued with the time point when the bulk was dissolved as 0 hr. The drug solution was sampled with the lapse of time and the dissolution state was observed and the content and analogous substances were measured.

SMILES: CCCCCCCCCCCCCC(=O)[O][Pt]1([O]C(=O)CCCCCCCCCCCCC)[NH][C@@H]2CCCC[C@H]2[NH]1 [bulk, cis[((1R,2R)-1,2-cyclohexanediamine-N,N′)bis(tetradecanoyloxy)]platinum(II) monohydrate]
- Content [vs. 0 h %] (Polytron, stirring time 0): 100%
- Content [vs. 0 h %] (Polytron, stirring time 0.5 h): 99.5%
- Content [vs. 0 h %] (Polytron, stirring time 1 h): 99.4%
- Content [vs. 0 h %] (Polytron, stirring time 2 h): 100.9%
- Content and analogous substances with the lapse of stirring time (any stirring method (Polytron or stirrer)): showed no change
- Content [vs. 0 h %] (stirrer, stirring time 0): 100%
- Content [vs. 0 h %] (stirrer, stirring time 0.5 h): 100.9%
- Content [vs. 0 h %] (stirrer, stirring time 1 h): 100.2%
- Content [vs. 0 h %] (stirrer, stirring time 2 h): 103.1%
